Reference: ChEMBL document CHEMBL1201862, “PubChem BioAssay data set” (2004)
Blank lines part the entries; values can stand above or below the molecule they belong to. Activity calls are given as the source filed them.

Legend:
[1] = Counterscreen for activators of the function of SWI/SNF related, matrix associated, actin dependent regulator of chromatin, subfamily a, member 2 (SMARCA2, BRM): Luminescence-based cell-based high throughput dose response assay to identify non-selective compounds using the VP16 reporter assay.; type: functional
Coagulation factor XII = target: T1, Coagulation factor XII (Homo sapiens, UniProt P00748); type: functional;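 also: activated factor XIIa alpha cleaving a fluorogenic AMC peptide substrate; inhibitor potency from loss of enzyme activity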
T1 sequence (P00748 whole entry): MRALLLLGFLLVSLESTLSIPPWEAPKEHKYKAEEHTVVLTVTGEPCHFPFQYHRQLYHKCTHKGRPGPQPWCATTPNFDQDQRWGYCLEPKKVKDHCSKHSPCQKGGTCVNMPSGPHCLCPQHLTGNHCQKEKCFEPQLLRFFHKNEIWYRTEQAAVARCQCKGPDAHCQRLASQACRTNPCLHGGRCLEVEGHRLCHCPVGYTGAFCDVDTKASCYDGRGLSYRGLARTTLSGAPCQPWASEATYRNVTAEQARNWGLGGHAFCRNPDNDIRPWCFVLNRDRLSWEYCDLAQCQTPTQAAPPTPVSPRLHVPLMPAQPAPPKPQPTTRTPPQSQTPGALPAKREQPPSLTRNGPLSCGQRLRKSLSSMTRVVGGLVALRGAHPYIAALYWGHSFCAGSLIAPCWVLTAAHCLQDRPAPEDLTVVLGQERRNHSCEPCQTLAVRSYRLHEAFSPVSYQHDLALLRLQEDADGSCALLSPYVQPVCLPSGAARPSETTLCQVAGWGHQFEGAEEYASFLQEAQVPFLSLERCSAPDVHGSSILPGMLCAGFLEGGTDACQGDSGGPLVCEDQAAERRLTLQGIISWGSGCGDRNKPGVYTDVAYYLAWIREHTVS

[2] = THP-1 cell cytotoxicity, dose response, cytotoxicity control for Vif-APOBEC3G degradation inhibitor project, THP-1 cells (AID 1117359); type: functional; details: Human immunodeficiency virus 1, THP-1
[3] = target: SWI/SNF-related matrix-associated actin-dependent regulator of chromatin subfamily A member 2 (Homo sapiens, UniProt P51531); experiment: Luminescence-based cell-based high throughput dose response assay to identify activators of the function of SWI/SNF related, matrix associated, actin dependent regulator of chromatin, subfamily a, member 2 (SMARCA2, BRM).; type: functional
Prothrombin = Prothrombin (Bos taurus, UniProt P00735); experiment: thrombin inhibition, dose response, biochemical, fluorescence polarization, uHTS hits (AID 602369); type: functional
[4] = target: T2, Tyrosine-protein phosphatase non-receptor type 22 (Homo sapiens, UniProt Q9Y2R2); experiment: LYP phosphatase inhibition for selectivity, dose response, selectivity assay for LMPTP inhibitor project, biochemical, fluorescence, LYP catalytic domain (AID 652006); type: functional; details: read-out: IC50_Mean
T2 sequence (Q9Y2R2 whole entry): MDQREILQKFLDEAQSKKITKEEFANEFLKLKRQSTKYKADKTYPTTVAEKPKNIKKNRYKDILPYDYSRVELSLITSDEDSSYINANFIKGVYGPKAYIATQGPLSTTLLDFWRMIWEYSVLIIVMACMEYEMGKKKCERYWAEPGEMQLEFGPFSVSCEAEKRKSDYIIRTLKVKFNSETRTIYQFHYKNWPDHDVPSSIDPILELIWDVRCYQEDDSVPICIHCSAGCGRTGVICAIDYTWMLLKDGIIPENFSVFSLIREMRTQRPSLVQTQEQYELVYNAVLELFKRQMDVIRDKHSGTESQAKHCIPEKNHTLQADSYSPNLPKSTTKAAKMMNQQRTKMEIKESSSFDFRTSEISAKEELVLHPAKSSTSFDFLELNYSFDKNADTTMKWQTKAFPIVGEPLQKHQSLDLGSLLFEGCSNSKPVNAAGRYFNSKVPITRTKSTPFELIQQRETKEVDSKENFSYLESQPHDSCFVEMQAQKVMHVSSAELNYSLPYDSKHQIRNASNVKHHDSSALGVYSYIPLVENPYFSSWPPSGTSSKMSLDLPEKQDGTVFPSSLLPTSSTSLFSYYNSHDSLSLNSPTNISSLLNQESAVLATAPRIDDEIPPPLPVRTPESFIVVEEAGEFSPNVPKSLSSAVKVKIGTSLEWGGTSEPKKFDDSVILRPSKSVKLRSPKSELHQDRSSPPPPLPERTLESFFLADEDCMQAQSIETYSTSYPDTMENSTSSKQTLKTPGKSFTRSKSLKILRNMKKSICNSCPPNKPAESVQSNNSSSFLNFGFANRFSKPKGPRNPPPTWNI

[5] = target: T3, Carboxy-terminal domain RNA polymerase II polypeptide A small phosphatase 1 (Homo sapiens, UniProt Q9GZU7); experiment: inhibitors of CTDSP1, concentration-response testing, biochemical assay, absorbance-based, actives from ultra-high-throughput screening (AID 540297); type: functional
T3 sequence (Q9GZU7 whole entry): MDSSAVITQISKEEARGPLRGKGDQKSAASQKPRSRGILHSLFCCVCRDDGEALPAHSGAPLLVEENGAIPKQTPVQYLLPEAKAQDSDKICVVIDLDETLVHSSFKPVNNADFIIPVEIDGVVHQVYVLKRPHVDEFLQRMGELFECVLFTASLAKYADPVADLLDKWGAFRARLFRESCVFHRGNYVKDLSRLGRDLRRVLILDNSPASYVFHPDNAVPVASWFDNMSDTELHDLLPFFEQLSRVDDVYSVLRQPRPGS

[6] = target: T4, Low molecular weight phosphotyrosine protein phosphatase (Homo sapiens, UniProt P24666); type: functional; details: read-out: IC50_Mean
T4 sequence (P24666 whole entry): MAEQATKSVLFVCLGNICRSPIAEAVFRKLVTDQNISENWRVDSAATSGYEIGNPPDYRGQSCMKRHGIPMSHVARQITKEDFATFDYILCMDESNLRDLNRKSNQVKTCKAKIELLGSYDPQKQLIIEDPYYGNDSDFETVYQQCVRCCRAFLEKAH

[7] = target: T4, Low molecular weight phosphotyrosine protein phosphatase; type: functional; details: read-out: IC50_Mean; remark: listed apart in the source
[8] = target: 26S proteasome non-ATPase regulatory subunit 14 (Homo sapiens, UniProt O00487); experiment: inhibition of proteasome subunit RPN11 – biochemical, fluorescence polarization, uHTS hits, confirmation (AID 602368); type: functional
[9] = target: 72 kDa type IV collagenase (Homo sapiens, UniProt P08253); experiment: Dose Response validation of uHTS RPN11 inhibitor hits using a MMP-2 Fluorescence assay.; type: functional
HEK293 [10] = experiment: cells; type: functional, cell-based; details: Homo sapiens
[11] = off-target signal loss in HeLa-CEM21 co-culture – HeLa F-luc CTL cells, cherry-picked, counter-screen for HIV-1 Env fusion inhibitor project, dose response (AID 652040); type: functional, cell-based;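 also: potency for signal decrease marking cytotoxic or nonspecific inhibition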
Galanin receptor type 3 = Galanin receptor type 3 (Homo sapiens, UniProt O60755); experiment: Fluorescence-based cell-based primary high throughput dose response assay to identify antagonists of the Galanin Receptor 3 (GalR3).; type: functional
Jurkat = experiment: antigen receptor-induced NF-kB inhibitors, dose response, Jurkat, luciferase reporter, luminescence, B- and T-cell (AID 489004); type: functional, cell-based; details: Homo sapiens;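 also: NF-kB luciferase reporter Jurkat cells stimulated with PMA plus ionomycin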
[12] = cytotoxicity in HEK-293T NF-kB-Luc cells, dose response, cytotoxicity control for B/T-cell NF-kB inhibitor project, cell-based, uHTS hits (AID 489019); type: functional;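 also: IC50 reflects cytotoxicity as loss of cell viability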
[13] = target: Nucleotide-binding oligomerization domain-containing protein 1 (Homo sapiens, UniProt Q9Y239); experiment: NOD1 signaling inhibitors, SAR follow-up, revised (AID 2333); type: functional
[14] = inhibitors of clade B AD8 Env fusion, dose response, cell-based, cherry-pick (AID 652062); type: functional;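 also: luciferase signal from cell-cell fusion driven by HIV-1 clade B AD8 Env; potency is for inhibitors of fusion seen as a drop in luminescence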
cells = type: functional, cell-based; details: HEK-CNG
HEK293 [15] = experiment: NOD1 signaling inhibitors, primary screen, cell-based, luminescence, uHTS (AID 1578); type: functional; details: Homo sapiens
HEK293 [16] = experiment: NOD2 signaling inhibitors in MDP-stimulated cells, cell-based, uHTS, luminescence (AID 2001); type: functional; details: Homo sapiens
HEK293 [17] = experiment: cells; details: Homo sapiens
HEK293 [18] = experiment: cells; type: functional, cell-based; details: Homo sapiens; remark: listed apart in the source
[19] = target: Eukaryotic translation initiation factor 4E (Mus musculus, UniProt P63073); experiment: eIF4E–eIF4G protein interaction inhibitors, dose response, biochemical, TR-FRET (AID 855); type: functional;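 also: potency for disrupting eIF4E binding to eIF4GI seen as loss of FRET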
Tumor necrosis factor = Tumor necrosis factor (Homo sapiens, UniProt P01375); experiment: TNFa-triggered NF-kB activation inhibitors, SAR follow-up, cell-based, revised (AID 2337); type: functional
Tumor necrosis factor, sequence (P01375 whole entry): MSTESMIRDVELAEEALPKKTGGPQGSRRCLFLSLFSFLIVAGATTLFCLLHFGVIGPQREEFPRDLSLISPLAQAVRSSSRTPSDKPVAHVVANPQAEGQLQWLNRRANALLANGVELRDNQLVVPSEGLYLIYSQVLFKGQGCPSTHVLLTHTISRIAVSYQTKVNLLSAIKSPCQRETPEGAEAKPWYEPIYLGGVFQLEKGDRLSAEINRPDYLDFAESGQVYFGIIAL

SWI/SNF-related matrix-associated actin-dependent regulator of chromatin subfamily A member 2, sequence (P51531 whole entry): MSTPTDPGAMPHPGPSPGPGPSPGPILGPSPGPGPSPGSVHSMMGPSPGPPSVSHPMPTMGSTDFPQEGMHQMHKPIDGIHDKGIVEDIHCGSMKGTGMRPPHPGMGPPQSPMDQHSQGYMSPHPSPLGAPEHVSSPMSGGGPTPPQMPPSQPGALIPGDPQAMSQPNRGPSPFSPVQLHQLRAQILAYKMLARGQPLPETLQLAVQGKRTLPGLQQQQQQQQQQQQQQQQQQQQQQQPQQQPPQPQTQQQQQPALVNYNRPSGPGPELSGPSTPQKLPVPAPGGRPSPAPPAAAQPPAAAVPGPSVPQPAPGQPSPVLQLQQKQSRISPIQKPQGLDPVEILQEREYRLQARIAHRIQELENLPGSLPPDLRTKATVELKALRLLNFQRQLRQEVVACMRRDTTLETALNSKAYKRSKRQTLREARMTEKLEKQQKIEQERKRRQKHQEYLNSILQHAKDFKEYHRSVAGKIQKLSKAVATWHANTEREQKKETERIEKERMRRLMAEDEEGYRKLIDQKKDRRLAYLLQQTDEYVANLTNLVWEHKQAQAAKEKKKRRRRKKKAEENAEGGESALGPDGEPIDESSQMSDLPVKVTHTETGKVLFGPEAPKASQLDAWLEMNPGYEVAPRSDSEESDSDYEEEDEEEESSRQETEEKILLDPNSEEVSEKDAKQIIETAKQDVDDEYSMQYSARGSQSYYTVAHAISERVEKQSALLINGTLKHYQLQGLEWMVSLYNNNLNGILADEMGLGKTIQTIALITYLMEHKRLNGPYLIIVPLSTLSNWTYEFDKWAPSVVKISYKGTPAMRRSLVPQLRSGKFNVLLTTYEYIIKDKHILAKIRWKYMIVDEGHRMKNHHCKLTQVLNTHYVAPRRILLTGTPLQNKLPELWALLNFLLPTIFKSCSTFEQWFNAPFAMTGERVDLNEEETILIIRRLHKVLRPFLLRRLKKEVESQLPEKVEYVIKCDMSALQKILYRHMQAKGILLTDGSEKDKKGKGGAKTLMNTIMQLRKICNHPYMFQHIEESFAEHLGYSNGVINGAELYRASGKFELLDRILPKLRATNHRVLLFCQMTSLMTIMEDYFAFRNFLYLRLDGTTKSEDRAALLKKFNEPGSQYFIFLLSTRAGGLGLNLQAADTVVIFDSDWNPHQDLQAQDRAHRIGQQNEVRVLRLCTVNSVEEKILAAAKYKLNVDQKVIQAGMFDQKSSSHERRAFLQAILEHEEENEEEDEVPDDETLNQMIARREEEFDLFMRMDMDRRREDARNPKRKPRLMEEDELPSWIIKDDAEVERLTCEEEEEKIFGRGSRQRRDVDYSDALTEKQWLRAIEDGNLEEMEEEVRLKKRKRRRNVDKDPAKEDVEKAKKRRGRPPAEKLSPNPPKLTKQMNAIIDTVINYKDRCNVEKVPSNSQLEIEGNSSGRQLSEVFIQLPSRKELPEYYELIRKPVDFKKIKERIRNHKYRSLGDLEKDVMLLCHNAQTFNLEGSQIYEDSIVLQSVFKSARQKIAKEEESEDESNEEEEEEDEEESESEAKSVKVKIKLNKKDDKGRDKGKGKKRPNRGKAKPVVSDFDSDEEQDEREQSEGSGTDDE
72 kDa type IV collagenase, sequence (P08253 whole entry): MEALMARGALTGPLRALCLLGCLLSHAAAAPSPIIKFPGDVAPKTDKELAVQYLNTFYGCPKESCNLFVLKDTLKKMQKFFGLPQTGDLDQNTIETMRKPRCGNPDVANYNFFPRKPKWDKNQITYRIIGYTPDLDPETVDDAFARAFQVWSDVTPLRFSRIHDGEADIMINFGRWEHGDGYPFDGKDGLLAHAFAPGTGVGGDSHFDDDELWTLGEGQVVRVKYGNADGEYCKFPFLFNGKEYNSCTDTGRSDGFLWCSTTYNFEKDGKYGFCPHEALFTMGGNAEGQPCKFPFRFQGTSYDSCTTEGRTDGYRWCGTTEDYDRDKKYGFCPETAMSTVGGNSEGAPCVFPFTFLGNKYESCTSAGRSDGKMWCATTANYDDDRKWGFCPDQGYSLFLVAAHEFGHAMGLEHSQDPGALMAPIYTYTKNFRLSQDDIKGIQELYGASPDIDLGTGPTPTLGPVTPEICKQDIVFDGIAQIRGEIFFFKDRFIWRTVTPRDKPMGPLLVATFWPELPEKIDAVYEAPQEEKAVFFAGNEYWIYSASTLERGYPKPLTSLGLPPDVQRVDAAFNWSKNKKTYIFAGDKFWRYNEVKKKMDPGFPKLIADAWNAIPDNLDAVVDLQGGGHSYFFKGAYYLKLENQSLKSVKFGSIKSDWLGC
Nucleotide-binding oligomerization domain-containing protein 1, sequence (Q9Y239 whole entry, the tested form may be a part): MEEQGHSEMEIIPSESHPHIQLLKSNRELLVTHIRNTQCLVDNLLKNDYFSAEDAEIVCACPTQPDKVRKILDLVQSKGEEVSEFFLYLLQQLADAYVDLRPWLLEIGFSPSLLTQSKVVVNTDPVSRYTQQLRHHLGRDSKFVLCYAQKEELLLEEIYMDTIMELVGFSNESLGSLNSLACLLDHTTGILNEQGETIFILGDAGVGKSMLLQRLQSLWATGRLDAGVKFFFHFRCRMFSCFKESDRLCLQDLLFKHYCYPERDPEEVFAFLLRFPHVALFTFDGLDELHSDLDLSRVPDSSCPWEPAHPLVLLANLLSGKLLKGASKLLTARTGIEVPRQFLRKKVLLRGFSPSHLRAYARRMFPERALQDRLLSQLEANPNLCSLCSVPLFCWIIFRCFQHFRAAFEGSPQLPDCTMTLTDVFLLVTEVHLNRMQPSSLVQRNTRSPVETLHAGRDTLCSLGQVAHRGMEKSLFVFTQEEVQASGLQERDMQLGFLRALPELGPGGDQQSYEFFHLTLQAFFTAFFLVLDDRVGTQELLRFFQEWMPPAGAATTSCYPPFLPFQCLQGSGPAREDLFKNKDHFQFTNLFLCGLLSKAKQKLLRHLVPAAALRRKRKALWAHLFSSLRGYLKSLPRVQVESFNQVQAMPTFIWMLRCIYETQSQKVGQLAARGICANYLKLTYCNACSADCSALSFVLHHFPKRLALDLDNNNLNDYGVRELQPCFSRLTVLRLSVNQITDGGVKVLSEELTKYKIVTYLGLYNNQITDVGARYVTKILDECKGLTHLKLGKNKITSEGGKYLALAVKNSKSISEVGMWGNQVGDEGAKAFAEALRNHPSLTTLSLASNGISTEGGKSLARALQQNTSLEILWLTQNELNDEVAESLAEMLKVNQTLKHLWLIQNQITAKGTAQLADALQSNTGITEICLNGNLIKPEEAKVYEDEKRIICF
Eukaryotic translation initiation factor 4E, sequence (P63073 whole entry): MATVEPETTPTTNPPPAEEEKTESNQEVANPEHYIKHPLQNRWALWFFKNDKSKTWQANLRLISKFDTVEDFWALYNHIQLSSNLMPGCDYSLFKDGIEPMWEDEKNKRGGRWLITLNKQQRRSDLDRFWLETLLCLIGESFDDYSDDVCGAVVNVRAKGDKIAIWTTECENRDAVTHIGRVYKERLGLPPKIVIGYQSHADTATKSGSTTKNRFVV
Galanin receptor type 3, sequence (O60755 whole entry): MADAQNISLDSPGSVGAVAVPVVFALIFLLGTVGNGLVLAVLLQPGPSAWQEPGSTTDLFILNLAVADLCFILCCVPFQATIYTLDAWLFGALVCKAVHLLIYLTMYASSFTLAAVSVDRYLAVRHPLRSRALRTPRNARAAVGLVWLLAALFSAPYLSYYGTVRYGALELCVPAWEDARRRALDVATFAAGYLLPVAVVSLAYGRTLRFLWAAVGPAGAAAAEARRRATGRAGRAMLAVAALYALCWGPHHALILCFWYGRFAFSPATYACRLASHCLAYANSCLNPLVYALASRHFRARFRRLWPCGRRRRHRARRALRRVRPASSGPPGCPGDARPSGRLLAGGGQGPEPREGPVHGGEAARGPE
26S proteasome non-ATPase regulatory subunit 14, sequence (O00487 whole entry): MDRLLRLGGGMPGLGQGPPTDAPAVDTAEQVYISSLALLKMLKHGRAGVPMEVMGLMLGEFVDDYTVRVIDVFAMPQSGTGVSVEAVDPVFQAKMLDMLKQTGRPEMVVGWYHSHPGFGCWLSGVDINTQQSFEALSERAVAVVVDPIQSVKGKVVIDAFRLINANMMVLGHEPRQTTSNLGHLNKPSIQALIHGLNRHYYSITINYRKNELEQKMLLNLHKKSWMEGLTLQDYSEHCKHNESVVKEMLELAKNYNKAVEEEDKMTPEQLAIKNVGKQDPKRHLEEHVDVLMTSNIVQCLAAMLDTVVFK

Structure (SMILES): CC1(C)CC(=O)C(=NNc2ccc(Br)cc2)C(=O)C1
EC50 [1]: > 91.1 µM (inactive) | IC50 (Coagulation factor XII): > 50 µM (inactive) | CC50 [2]: > 40 µM (active) | EC50 [3]: > 91.1 µM (inactive)

IC50 (Prothrombin): 61.6 µM (active) | IC50 [4]: 29 µM (inactive) | IC50 [5]: 3.73 µM (active) | IC50 [6]: 12 µM (active) | IC50 [7]: 15.8 µM (active) | IC50 [8]: 17.9 µM (active) | IC50 [9]: 12 µM (active)
Structure (SMILES): O=C(/C=C/c1ccccc1Cl)Nc1ccc2c(c1)C(=O)NC2=O

Structure (SMILES): CCCCCn1c(=O)[nH]c2cc(C(=O)N3CCN(Cc4ccc5c(c4)OCO5)CC3)ccc2c1=O
IC50 (HEK293 [10]): 8.7 µM (active) | AC50 [11]: > 70 µM (inactive) | IC50 (Galanin receptor type 3): 0.148 µM (active) | IC50 (Jurkat): > 80 µM (inactive) | IC50 [12]: > 80 µM (inactive) | IC50 [13]: 0.771 µM (active) | AC50 [14]: < 0.26 µM (active) | EC50 (cells): > 29.9 µM (inactive) | EC50 (HEK293 [15]): 0.36 µM (active) | IC50 (HEK293 [16]): 1.27 µM (active) | IC50 (HEK293 [17]): > 20 µM (inactive) | IC50 (HEK293 [18]): 0.97 µM (active) | IC50 [19]: > 64 µM (inactive) | IC50 (Tumor necrosis factor): 1.18 µM (active)
